{"source": "patent US9528112B2", "about": "“Composition comprising material for inhibiting SCF or receptor thereof for treating or preventing diseases associated with vascular permeability” (AJOU UNIVERSITY INDUSTRY-ACADEMIC COOPERATION FOUNDATION, priority 2012, dated 2016)", "key": {"[1]": {"system": "NO (nitric oxide) in vascular endothelial cells", "experiment": "Generation of NO in vascular endothelial cells induced by SCF", "assay_type": "cell-based", "settings": "SCF 20 ng/ml; culture supernatant collected over time; FIG. 2A", "description": "Vascular endothelial cells were cultured in 12 well plate for 24 hours. The medium was replaced with the endothelial basal medium supplemented with 1% FBS, which was then treated with SCF (20 ng/ml). The culture fluid was collected over the time, followed by centrifugation. The level of NO (nitric oxide) in the supernatant was measured (Total No/Nitrite/Nitrate Assay Kit)."}, "[2]": {"system": "vascular endothelial cells", "experiment": "eNOS dependent increase of vascular endothelial cell permeability by SCF (L-NAME, transwell)", "assay_type": "cell-based", "settings": "SCF 20 ng/ml for 1 hour; FIG. 2B", "description": "Vascular endothelial cells were loaded in the upper chamber of 12 well transwell filter (Corning Costar), followed by culture for 48 hours. The medium was replaced with the endothelical basal medium supplemented with 1% FBS, followed by further culture for 3 hours. L-NAME, the eNOS inhibitor, was pretreated (1 mM) to the cells for 30 minutes and then SCF (R&D Systems, Minneapolis, Minn., USA) was treated (20 ng/ml) thereto for 1 hour. FITC-conjugated dextran (fluorescein isothiocyanate-dextran) was also treated (1 mg/ml) thereto. 30 minutes later, the culture fluid was taken from the lower chamber, followed by the measurement with a fluorophotometer."}, "VE-cadherin": {"system": "VE-cadherin", "experiment": "VE-cadherin endocytosis of vascular endothelial cells (immunostaining)", "assay_type": "cell-based", "settings": "SCF 20 ng/ml or VEGF 50 ng/ml, 37° C., 30 minutes; for expression of VE-cadherin on the cell surface: FIG. 2C; for endocytosis of VE-cadherin: acid buffer wash, FIG. 2D", "description": "Vascular endothelial cells were cultured in 8 well chamber slide (Lab-Tek) for 48 hours. The medium was replaced with the endothelical basal medium supplemented with 1% FBS, followed by culture for 16 hours. The cells were treated with VE-cadherin antibody (R&D Systems, Minneapolis, Minn., USA) at 4° C. for 1 hour. SCF (20 ng/ml) and VEGF (50 ng/ml) (R&D Systems, Minneapolis, Minn., USA) were added thereto at 37° C. for 30 minutes to introduce VE-cadherin into the cells. To observe VE-cadherin on the cell surface, fixation was performed with 4% PFA, followed by immunostaining. To observe VE-cadherin in the inside of the cells migrated by SCF and VEGF mediated endocytosis, VE-cadherin on the cell surface was first removed by using an acid buffer (pH 2.7) and then the cells were fixed with 4% PFA, followed by immunostaining. Then, observation under a fluorescence microscope was performed."}, "mouse retinal vessels": {"system": "mouse retinal vessels", "experiment": "Angiography of mouse retinal vessels (FITC-dextran, flat mount)", "assay_type": "in vivo", "settings": "SCF injected in the retina; 24 hours; FIG. 4A, 4B", "description": "SCF and SCF receptor inhibiting antibody were injected in the retina of C57/BL6 mouse. 24 hours later, the mouse was anesthetized and then intracardiac FITC-dextran injection was performed in order to let the fluorescein flow through blood. 30 minutes later, the retina of the mouse was extracted and observed under a fluorescence microscope after flat mounting."}, "[3]": {"system": "vascular endothelial cells", "experiment": "C-Kit dependent permeability of vascular endothelial cells with SCF (siRNA, transwell, FITC-dextran)", "assay_type": "cell-based", "settings": "SCF 20 ng/ml; FITC-conjugated dextran; FIG. 1B", "description": "Vascular endothelial cells were loaded in 60 mm plate. The control siRNA 5′-[…]-3′ (SEQ. ID. NO: 1) and the C-Kit siRNAs 5′-UCAUUCUUGAUGUCUCUGG-3′ (SEQ. ID. NO: 2); 5′-UUUGAGUUCAGACAUGAGG-3′ (SEQ. ID. NO: 3); 5′-UCUUAUAAAGUGCAGCUUC-3′ (SEQ. ID. NO: 4); and 5′-UACAAUGCCAUUCUGAAGC-3′ (SEQ. ID. NO: 5) were introduced in the cells by using lipofectamin. 24 hours later, the endothelial cells were transferred into the upper chamber of 12 well transwell filter (Corning Costar), followed by culture for 24 hours. The medium was replaced with the endothelical basal medium supplemented with 1% FBS, followed by further culture for 3 hours. SCF was treated thereto at the concentration of 20 ng/ml, followed by the treatment with FITC-conjugated dextran (1 mg/ml). 30 minutes later, the culture fluid was taken from the lower chamber, followed by the measurement with a fluorophotometer."}, "C-Kit and Akt-eNOS": {"system": "C-Kit and Akt-eNOS", "experiment": "Intracellular signaling pathway of vascular endothelial cells with SCF (Western blotting)", "assay_type": "cell-based", "settings": "SCF 20 ng/ml, cells harvested over time, FIG. 1C", "description": "Vascular endothelial cells were loaded in 60 mm plate, followed by culture for 24 hours. The medium was replaced with the endothelical basal medium supplemented with 1% FBS, followed by further culture for 6 hours. SCF (20 ng/ml) was treated thereto and the cells were harvested over the time, followed by Western blotting."}, "[4]": {"system": "vascular endothelial cells", "experiment": "Vascular endothelial cell permeability with SCF (transwell, FITC-dextran)", "assay_type": "cell-based", "settings": "SCF 10, 20 and 50 ng/ml for 1 hour; FITC-conjugated dextran 1 mg/ml, 30 minutes; FIG. 1A", "description": "Vascular endothelial cells were loaded in the upper chamber of 12 well transwell filter (Corning Costar), followed by culture for 48 hours. The medium was replaced with the endothelical basal medium supplemented with 1% FBS, followed by further culture for 3 hours. SCF (R&D Systems, Minneapolis, Minn., USA) was treated thereto at different concentrations (10, 20, and 50 ng/ml) for 1 hour, followed by the treatment with FITC-conjugated dextran (fluorescein isothiocyanate-dextran) (1 mg/ml). 30 minutes later, the culture fluid was taken from the lower chamber, followed by the measurement with a fluorophotometer."}, "C57/BL mouse": {"system": "C57/BL mouse", "experiment": "Vascular permeability in mouse subcutaneous tissue (Evans blue dye, back skin, OD620)", "assay_type": "in vivo", "settings": "SCF injected intradermally; skin collected after 20 minutes; FIG. 3A, 3B", "description": "Evans blue dye […] was injected intravenously in the tail of C57/BL mouse. 10 minutes later, SCF and SCF receptor inhibiting antibody (anti-cKit IgG: Monoclonal anti-SCF receptor neutralization antibody: R&D Systems, Minneapolis, Minn., USA) were injected intradermally on the back of the mouse. 20 minutes later, the back skin of the mouse was collected. The region where Evans blue dye was penetrated through tissues was photographed. The skin was fixed in formamide, which stood at room temperature for 4 days. Then, OD620 was measured by using a spectrophotometer."}}}
{"substance": "SCF: cytokine binding to C-Kit (CD117); R&D Systems", "values": [{"measurement": "level of NO", "setting": "[1]", "value": "increased"}, {"measurement": "permeability of endothelial cells", "setting": "[2]", "value": "increased"}, {"measurement": "expression of VE-cadherin on the cell surface", "setting": "VE-cadherin", "value": "reduced"}, {"measurement": "endocytosis of VE-cadherin", "setting": "VE-cadherin", "value": "induced"}, {"measurement": "retinal vessel permeability", "setting": "mouse retinal vessels", "value": "increased"}, {"measurement": "permeability of the endothelial cells", "setting": "[3]", "value": "increased"}, {"measurement": "phosphorylation of C-Kit and Akt-eNOS", "setting": "C-Kit and Akt-eNOS", "value": "induced the phosphorylation"}, {"measurement": "permeability of vascular endothelial cells", "setting": "[4]", "value": "increased by the treatment of SCF dose-dependently"}, {"measurement": "vascular permeability of the mouse (Evans blue leakage in back skin)", "setting": "C57/BL mouse", "value": "increased"}]}
{"substance": "VEGF", "values": [{"measurement": "expression of VE-cadherin on the cell surface", "setting": "VE-cadherin", "value": "decreased"}, {"measurement": "endocytosis of VE-cadherin", "setting": "VE-cadherin", "value": "increased"}]}
